Measurements reported in ChEMBL document CHEMBL1201862, “PubChem BioAssay data set” (2004).
Calls of active or inactive are those of the source.

Assays:
Cytochrome P450 2C9 = Cytochrome P450 2C9 (Homo sapiens, UniProt P11712)
[1] = target: Serine/threonine-protein phosphatase PP1-alpha catalytic subunit (Homo sapiens, UniProt P62136); experiment: PP1 phosphatase inhibitors, dose response, biochemical, fluorescence (AID 2403);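 note: phosphatase turnover of OMFP into fluorescent 3-O-methylfluorescein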
Chain of Serine/threonine-protein phosphatase PP1-alpha catalytic subunit (P62136 whole entry): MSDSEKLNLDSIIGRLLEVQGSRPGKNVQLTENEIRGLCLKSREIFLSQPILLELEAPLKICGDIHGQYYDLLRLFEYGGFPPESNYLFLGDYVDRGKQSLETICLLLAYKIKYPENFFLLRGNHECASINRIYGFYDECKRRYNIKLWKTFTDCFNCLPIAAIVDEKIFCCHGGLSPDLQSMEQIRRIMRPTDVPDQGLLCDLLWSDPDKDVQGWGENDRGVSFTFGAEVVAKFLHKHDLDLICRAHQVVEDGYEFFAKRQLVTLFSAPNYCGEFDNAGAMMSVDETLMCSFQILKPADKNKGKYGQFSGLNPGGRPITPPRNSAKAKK

[2] = microbe, parasite or virus in culture; assay type: functional; conditions: Mycobacterium tuberculosis
[3] = target: Serine/threonine-protein phosphatase (Homo sapiens, UniProt Q9BPW0); experiment: Counterscreen for inhibitors of PP1: fluorescence-based biochemical high throughput dose response assay to identify inhibitors of Protein Phosphatase 5 (PP5). [Related pubchem assays: 2034 (Summary (PP5 inhibitors)), 1987 (PP5 inhibitors in singlate), 2235 (PP1 inhibitors in singlate)]
Chain of Serine/threonine-protein phosphatase (Q9BPW0 whole entry): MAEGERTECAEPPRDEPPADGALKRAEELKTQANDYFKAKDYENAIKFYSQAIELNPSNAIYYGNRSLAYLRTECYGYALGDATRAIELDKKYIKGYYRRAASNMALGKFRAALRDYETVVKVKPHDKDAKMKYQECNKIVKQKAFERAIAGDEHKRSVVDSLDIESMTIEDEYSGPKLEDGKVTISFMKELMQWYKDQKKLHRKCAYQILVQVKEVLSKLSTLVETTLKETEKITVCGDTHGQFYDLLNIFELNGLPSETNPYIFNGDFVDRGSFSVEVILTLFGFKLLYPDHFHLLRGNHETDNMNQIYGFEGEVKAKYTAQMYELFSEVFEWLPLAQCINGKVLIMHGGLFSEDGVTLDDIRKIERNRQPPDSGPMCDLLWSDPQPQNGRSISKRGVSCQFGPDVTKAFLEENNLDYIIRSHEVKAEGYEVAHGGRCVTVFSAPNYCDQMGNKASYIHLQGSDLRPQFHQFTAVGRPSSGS

[4] = Artemis endonuclease inhibitor potency, dose response, biochemical, fluorescence intensity (AID 720701); assay type: functional;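 note: Artemis endonuclease enzyme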
[5] = target: RNA-editing ligase 1, mitochondrial (Trypanosoma brucei brucei, UniProt P86926); experiment: TbREL1 ligase inhibitors, dose response, biochemical, fluorescence, Trypanosoma brucei (AID 1117295); assay type: functional
Chain of RNA-editing ligase 1, mitochondrial (P86926 whole entry): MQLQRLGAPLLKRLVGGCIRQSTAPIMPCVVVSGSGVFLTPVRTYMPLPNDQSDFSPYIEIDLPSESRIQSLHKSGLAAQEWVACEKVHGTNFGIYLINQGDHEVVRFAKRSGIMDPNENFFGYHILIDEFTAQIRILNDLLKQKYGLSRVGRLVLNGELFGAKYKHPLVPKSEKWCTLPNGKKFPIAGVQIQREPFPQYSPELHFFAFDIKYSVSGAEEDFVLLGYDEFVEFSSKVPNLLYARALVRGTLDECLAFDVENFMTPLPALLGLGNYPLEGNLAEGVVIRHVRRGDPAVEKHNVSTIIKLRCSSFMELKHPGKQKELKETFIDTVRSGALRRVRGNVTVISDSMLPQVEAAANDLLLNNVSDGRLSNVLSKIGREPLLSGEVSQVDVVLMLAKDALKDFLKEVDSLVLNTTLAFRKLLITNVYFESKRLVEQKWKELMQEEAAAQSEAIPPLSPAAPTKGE

[6] = target: T1, DNA repair protein RAD52 homolog (Homo sapiens, UniProt P43351); assay type: functional, biochemical
T1 sequence (P43351 whole entry): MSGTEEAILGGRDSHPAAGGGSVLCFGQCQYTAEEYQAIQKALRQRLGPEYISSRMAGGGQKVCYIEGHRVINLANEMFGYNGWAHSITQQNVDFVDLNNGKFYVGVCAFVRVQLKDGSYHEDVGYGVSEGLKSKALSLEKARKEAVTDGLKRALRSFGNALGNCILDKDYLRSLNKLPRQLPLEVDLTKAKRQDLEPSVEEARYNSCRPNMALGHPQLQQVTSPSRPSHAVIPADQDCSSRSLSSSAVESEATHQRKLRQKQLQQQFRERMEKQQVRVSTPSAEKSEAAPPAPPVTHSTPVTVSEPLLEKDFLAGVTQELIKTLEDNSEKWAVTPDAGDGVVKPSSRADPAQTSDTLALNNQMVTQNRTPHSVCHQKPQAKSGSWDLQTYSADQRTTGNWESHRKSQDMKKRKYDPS

[7] = target: COUP transcription factor 2 (Homo sapiens, UniProt P24468); experiment: Luminescence-based cell-based high throughput dose response assay to identify inhibitors of COUP-TFII (NR2F2).; assay type: functional;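 note: HEK293 cells transiently cotransfected with COUP-TFII expression vector and reporter; luciferase reporter luminescence driven by COUP-TFII from the pX2-168 reporter plasmid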
Chain of COUP transcription factor 2 (P24468 whole entry): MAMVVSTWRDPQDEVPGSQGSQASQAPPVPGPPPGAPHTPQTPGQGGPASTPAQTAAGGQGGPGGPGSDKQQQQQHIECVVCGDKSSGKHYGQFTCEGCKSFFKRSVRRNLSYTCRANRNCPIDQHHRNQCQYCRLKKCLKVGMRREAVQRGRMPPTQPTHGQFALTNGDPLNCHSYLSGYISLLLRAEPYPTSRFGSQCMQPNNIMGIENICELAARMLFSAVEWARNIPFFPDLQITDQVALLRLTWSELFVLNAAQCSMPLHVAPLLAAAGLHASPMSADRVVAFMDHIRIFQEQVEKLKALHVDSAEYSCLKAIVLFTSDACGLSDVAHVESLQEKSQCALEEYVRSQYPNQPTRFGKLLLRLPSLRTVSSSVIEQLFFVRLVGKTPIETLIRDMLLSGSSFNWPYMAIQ

[8] = A549 cell cytotoxicity, dose response, cytotoxicity control, plate reader, cherry-pick, antagonist series (AID 743412); assay type: functional, cell-based
[9] = LGR2 antagonists, dose response, cell-based, HEK293, CRE-luciferase reporter, cherry pick, set 2 (AID 743343); assay type: functional;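 note: transfected cells were stimulated with diluted bursicon conditioned medium after compound addition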
[10] = target: T2, Heat shock factor protein 1 (Mus musculus, UniProt P38532); experiment: inhibition of MG132-induced HSE-luciferase signal, confirmation, cell-based, NIH3T3, luminescence, dose retest (AID 2382); assay type: functional;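 note: NIH3T3 fibroblasts with HSF1-driven luciferase reporter stressed by proteasome inhibitor MG132; luminescence from HSF1-driven luciferase expression after 8 hours of MG132 stress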
T2 sequence (P38532 whole entry): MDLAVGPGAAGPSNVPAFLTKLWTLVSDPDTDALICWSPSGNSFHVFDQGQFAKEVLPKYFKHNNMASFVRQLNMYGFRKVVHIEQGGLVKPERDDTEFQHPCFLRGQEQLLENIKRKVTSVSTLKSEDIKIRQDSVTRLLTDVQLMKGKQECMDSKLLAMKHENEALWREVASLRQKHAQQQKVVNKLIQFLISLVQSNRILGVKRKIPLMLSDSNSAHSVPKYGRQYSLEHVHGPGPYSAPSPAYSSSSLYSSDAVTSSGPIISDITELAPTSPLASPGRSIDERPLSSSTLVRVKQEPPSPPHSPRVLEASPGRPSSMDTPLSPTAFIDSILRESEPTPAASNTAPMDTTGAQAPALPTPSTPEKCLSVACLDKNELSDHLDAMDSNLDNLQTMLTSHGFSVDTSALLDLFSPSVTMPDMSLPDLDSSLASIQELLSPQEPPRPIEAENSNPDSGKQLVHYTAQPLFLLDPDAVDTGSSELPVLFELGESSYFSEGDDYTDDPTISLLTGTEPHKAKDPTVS

[11] = MC4R antagonists, dose response, counter-screen for LGR2 antagonist project, cell-based, plate reader, cherry pick (AID 743444); assay type: functional;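 note: transfected HEK 293 cells stimulated with alpha-MSH peptide; potency of inhibitors of the alpha-MSH evoked signal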
[12] = reduction of Shn3 3'UTR firefly luciferase signal, dose response, Schnurri-3 inhibitor project, cell-based, Clone20 osteoblasts, cherry-pick, set 2 (AID 720490); assay type: functional;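 note: actives lower the luminescence signal as inhibitors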
[13] = HepG2 cell cytotoxicity, dose response, cytotoxicity control, plate reader, cherry-pick, antagonist series (AID 743416); assay type: functional, cell-based
[14] = Shn3 3'UTR reporter inhibitors, dose response, cell-based, Clone20 osteoblasts, firefly luciferase, cherry-picked (AID 624132); assay type: functional;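 note: firefly luciferase luminescence from reporter carrying the Shn3 3'UTR in osteoblasts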
[15] = target: T3, Microphthalmia-associated transcription factor (Homo sapiens, UniProt O75030); experiment: TRPM1 promoter luciferase signal decrease, dose response, MITF inhibitor project, cell-based, SK-MEL-5, cherry-picked, set 3 (AID 493073); assay type: functional
T3 sequence (O75030 whole entry): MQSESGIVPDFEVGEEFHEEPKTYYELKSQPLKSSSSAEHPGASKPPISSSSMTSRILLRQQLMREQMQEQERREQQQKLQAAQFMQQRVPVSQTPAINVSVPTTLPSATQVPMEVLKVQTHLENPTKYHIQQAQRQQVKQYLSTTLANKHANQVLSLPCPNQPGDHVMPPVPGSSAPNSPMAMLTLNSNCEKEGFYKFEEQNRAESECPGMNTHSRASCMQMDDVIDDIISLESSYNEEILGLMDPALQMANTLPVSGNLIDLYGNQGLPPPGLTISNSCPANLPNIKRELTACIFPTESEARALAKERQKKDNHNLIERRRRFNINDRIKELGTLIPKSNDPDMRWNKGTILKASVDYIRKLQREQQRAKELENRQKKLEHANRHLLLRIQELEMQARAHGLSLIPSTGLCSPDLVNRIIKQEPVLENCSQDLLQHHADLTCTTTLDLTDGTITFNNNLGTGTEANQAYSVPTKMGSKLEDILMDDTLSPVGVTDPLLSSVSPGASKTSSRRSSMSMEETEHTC

[16] = HEK293 cell cytotoxicity, dose response, cytotoxicity control, plate reader, cherry-picked samples (AID 743446); assay type: functional, cell-based
[17] = target: NAD-dependent protein deacylase sirtuin-5, mitochondrial (Homo sapiens, UniProt Q9NXA8); experiment: SIRT5 desuccinylase inhibitors, dose response, biochemical, fluorescence imaging, cherry-pick, set 5 (AID 720591);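 note: desuccinylation of succinyl peptide AMC substrate read as fluorescence after trypsin release; potency of inhibitors that lower fluorescence and may act on trypsin instead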
Chain of NAD-dependent protein deacylase sirtuin-5, mitochondrial (Q9NXA8 whole entry): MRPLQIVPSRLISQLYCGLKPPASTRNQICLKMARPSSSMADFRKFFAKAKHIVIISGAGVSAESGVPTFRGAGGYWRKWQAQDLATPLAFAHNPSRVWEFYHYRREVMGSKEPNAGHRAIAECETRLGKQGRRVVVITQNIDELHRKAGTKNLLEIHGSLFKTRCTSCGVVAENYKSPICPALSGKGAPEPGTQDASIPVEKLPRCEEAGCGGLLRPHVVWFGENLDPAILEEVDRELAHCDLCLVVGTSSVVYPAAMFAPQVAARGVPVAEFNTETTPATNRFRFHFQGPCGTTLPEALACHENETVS

Protein skinhead-1 = target: T4, Protein skinhead-1 (Caenorhabditis elegans, UniProt P34707); assay type: functional
T4 sequence (P34707 whole entry): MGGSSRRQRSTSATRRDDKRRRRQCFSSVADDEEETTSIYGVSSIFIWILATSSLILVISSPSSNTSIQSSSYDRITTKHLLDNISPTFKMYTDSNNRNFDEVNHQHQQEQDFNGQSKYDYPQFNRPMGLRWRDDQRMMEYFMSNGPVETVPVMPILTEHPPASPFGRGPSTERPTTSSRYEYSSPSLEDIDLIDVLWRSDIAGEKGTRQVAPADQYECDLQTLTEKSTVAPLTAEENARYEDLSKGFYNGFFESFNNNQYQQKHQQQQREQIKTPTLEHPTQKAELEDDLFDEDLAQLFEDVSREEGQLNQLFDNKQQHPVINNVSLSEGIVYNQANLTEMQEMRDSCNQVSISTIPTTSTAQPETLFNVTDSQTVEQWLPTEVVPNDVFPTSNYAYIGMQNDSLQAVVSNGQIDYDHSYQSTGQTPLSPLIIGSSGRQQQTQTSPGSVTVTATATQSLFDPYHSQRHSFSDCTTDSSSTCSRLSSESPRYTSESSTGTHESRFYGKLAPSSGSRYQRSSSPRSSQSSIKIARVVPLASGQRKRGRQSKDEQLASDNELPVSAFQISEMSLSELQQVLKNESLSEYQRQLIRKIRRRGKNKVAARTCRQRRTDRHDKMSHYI

[18] = target: Oxysterols receptor LXR-beta (Homo sapiens, UniProt P55055); assay type: functional, cell-based;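 note: Cell-based luminescence dose-response assay of agonist activity at LXR, run as a confirmatory counterscreen to a daf-12 agonist screen; HEK293 cells with Gal4-LXR fusion and GAL4-driven luciferase reporter; agonist potency from rising luciferase signal of a Gal4-LXR reporter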
Chain of Oxysterols receptor LXR-beta (P55055 whole entry, the tested form may be a part): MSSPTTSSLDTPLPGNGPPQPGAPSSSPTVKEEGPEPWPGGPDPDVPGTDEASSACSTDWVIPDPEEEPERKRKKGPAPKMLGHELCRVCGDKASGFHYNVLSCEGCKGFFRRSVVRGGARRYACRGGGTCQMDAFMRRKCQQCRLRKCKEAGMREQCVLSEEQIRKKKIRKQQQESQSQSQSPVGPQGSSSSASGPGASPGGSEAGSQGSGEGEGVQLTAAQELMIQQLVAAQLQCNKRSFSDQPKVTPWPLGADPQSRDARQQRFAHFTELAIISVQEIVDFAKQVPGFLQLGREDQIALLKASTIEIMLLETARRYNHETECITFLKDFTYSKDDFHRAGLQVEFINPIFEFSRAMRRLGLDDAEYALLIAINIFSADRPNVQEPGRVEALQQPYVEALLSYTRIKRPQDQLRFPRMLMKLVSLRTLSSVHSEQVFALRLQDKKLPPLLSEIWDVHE

Paired box protein Pax-8 = Paired box protein Pax-8 (Homo sapiens, UniProt Q06710); experiment: inhibitors of PAX8-driven TPO luciferase reporter, dose response, RMG-I cells, cherry-pick (AID 687027); assay type: functional, cell-based;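 note: luciferase reporter driven by Pax8 target thyroperoxidase promoter measured by SteadyGlo luminescence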
Chain of Paired box protein Pax-8 (Q06710 whole entry): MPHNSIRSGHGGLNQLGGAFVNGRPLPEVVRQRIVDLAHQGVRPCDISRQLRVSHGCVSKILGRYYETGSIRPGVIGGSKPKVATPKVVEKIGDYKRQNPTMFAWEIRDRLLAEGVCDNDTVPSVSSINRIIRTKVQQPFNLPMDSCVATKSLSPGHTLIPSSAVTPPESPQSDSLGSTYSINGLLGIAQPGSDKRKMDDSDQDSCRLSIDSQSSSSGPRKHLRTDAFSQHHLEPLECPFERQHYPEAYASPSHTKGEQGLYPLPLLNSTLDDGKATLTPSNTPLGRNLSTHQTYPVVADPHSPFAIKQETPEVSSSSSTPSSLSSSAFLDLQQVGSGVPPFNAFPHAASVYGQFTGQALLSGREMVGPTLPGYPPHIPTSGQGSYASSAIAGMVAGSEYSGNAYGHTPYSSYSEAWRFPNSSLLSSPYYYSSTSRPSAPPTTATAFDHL

[19] = intracellular Trypanosoma cruzi inhibitors in host cells – cell-based, plate reader, cherry-pick samples, set 3, dose response (AID 651818); assay type: functional;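 note: compounds incubated with infected cells for about four days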
[20] = NIH:OVCAR-3 ovarian cancer cell cytotoxicity, dose response, PAX8 inhibitor project, plate reader, dry powder samples (AID 743044); assay type: functional, cell-based
[21] = cytotoxicity dependent on PAX8, dose response, cell-based, plate reader, dry powder (AID 743049); assay type: functional
[22] = PAX2 cell-based inhibition, dose response, selectivity assay for PAX8 inhibitor project, plate reader, dry powder samples (AID 743048); assay type: functional;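 note: HEK293 cells carrying a WT1 promoter luciferase reporter driven by expressed Pax2; potency is for inhibition of Pax2 driven reporter signal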
[23] = cytotoxicity in OV-90 ovarian cancer cells, dose response, PAX8 inhibitor project, cell-based, plate reader, dry powder, SA8 (AID 743149); assay type: functional
[24] = cytotoxicity in OVCAR4 cells, dose response, cytotoxicity control for PAX8 inhibitor project, cell-based, plate reader, dry powder, SA11 (AID 743150); assay type: functional; conditions: OVCAR-4
[25] = PAX5 activity inhibitors, dose response, selectivity assay for PAX8 inhibitor project, cell-based, plate reader, dry powder samples (AID 743047); assay type: functional;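 note: HEK293 cells carrying a Pax5 driven CD19 promoter luciferase reporter; potency of inhibitors that lower reporter luminescence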

Chain of Cytochrome P450 2C9 (P11712 whole entry): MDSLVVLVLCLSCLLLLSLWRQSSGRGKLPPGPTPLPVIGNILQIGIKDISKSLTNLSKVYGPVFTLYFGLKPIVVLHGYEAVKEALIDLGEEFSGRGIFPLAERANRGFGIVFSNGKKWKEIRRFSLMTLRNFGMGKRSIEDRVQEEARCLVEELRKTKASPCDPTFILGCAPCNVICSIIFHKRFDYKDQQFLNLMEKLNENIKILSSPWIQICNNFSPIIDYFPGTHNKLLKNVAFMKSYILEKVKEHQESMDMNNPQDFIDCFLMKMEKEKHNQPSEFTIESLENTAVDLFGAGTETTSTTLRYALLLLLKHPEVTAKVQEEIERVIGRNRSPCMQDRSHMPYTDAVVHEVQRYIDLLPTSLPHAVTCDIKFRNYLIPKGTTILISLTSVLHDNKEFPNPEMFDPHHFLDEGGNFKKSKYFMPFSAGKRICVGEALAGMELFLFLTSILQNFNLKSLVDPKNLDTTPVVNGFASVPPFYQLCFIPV

## c1ccc(-c2nccc(-c3ccc(-n4cnc5ccccc54)cc3)n2)nc1
Cytochrome P450 2C9
  AC50: 22.4 µM (inconclusive)
[1]
  IC50: 4 µM (active)
[2]
  CC50: > 40 µM (active)
[3]
  IC50: 57.6 µM (not active)
[4]
  IC50: 4.65 µM (active)

## COc1ccccc1N(Cc1ccccc1)S(=O)(=O)c1cccc(C(=O)NC2CC(C)(C)NC(C)(C)C2)c1
[5]
  IC50: > 96.6 µM (inactive)
[6]
  AC50: 13.4 µM (active)

## C=CCC1(CC=C)CCCN1C(=O)c1cc(COc2ccc(-n3cncn3)cc2)on1
[7]
  IC50: 7.88 µM (active)

## O=C(O)c1cccc(COc2ccccc2Cl)c1
[8]
  AC50: > 52 µM (inactive)
[9]
  AC50: 0.517 µM (active)
[10]
  EC50: 1.06 µM (active)
[11]
  AC50: 0.488 µM (active)
[12]
  AC50: 4.74 µM (active)
[13]
  AC50: > 52 µM (inactive)
[14]
  AC50: 1.48 µM (active)
[15]
  AC50: 0.756 µM (active)
[16]
  AC50: > 52 µM (inactive)

## COc1ccc(CN(C(=O)c2ccco2)c2ccc(C)c(C)c2)cc1
[17]
  AC50: 24.7 µM (active)

## Clc1ccc(C=Cc2ccccn2)c(Cl)c1
Protein skinhead-1
  IC50: 4.24 µM (active)
[18]
  EC50: > 67.6 µM (inactive)
cells
  EC50: > 67.6 µM (inactive)

## COc1ccc(S(=O)(=O)Nc2ccc3c(c2)CC(=O)N([C@@H](C)CO)C[C@H](C)[C@@H](CN(C)Cc2ccc(C(F)(F)F)cc2)O3)cc1
Paired box protein Pax-8
  AC50: 6.21 µM (active)
[19]
  AC50: 3.67 µM (active)
[20]
  AC50: 49.1 µM (active)
[21]
  AC50: 31.3 µM (active)
[22]
  AC50: 20 µM (active)
[23]
  AC50: > 70 µM (inactive)
[24]
  AC50: 59.7 µM (active)
[25]
  AC50: 21.7 µM (active)
